The subject of one assay is NRG1/HER3 signaling. Nature of the assay: HER4-ECD on serum starved LKPH1 and LKPH2 cells, p-HER3 Western blot. In kind it is cell-based, mouse. Here is the method:
To induce shRNA expression, stable cell lines harboring doxcycline-inducible shNRG1 or shLuciferase were grown in 1 ug/ml doxcycline for a total of 6 days. The first day of induction cells were grown in 10% FBS, followed by a titration of FBS over the course of 4 more days. The cells were then completely serum starved during the last 6 hours of growth. Cells were then processed for RNA extraction or western blotting. For HER4ECD studies in mouse lung tumor cell lines, LKPH cells were grown in serum starved conditions for 24 hours prior to addition of HER4ECD at a concentration of 2 mg/ml. LKPH cells were then incubated for another 48 hours prior to processing for Western blotting. Addition of exogenous NRG1 on H441 cells were performed as follows: H441 cells were serum starved for 18 hours prior to addition of 1 uM recombinant human NRG1 beta-1 extracellular domain (R&D systems) or 1 uM anti-ragweed IgG2A as the control. Ten minutes after addition of NRG1 or ragweed, cells were processed for Western blotting.
To test the role of NRG1 signaling in promoting relapse after chemotherapy in the LSL-K-ras^G12D;p53^F1/+ mouse model, a ligand-trap approach to sequester NRG1 and prevent its binding to receptors in vivo was employed. A fusion of the human HER4 extracellular domain (HER4-ECD) fused to murine IgG2A Fc was generated. […]
(Immunoblotting shows a protein as a band on a membrane.)

The subject of assay [1] is lung tumors of LSL-K-rasG12D;p53Fl/Fl mice. Nature of the assay: Lung tumor burden by micro-CT in LSL-K-rasG12D;p53Fl/Fl mice. The assay is classed as in vivo, mouse. The note with it: FIG. 3C. Here is the method:
LSL-K-ras^G12D;p53^F1/+ were infected with Adeno-Cre virus and allowed to age for 16 weeks post-tumor induction. Baseline CT scans were performed at 16 weeks post-tumor induction (day 0 of study) and mice were grouped such that average starting tumor volume per group were equal. Mice were dosed once a week for three weeks with cisplatin (7 mg/kg) or phosphate-buffered saline, and bi-weekly with HER4ECD-Fc (25 mg/kg) or anti-ragweed IgG2A (25 mg/kg) for the duration of the study. Serial CT scans were performed at days 14, 45, and 66.
Two micro-CT systems (vivaCT 40 and vivaCT 75, Scanco Medical, Switzerland) were utilized for longitudinal lung imaging. Animals were randomized between micro-CT systems and rescanned on the same system used for baseline imaging. […] The imaging data were evaluated in the coronal plane using the image analysis software package Analyze (AnalyzeDirect, Inc., Lenexa, Kans., USA). Once the largest cross-sectional plane of each tumor was identified, estimates of maximal tumor diameter (d1) and the largest perpendicular diameter (d2) were determined. The total tumor burden was calculated as the sum of the cross-product of the directional estimates (d1×d2) of all the tumors.
A second study was carried out in LSL-K-ras^G12D;p53^F1/F1 mice as described above. […] Combination activity was assessed using an unpaired t-test against its monotherapy * p<0.05, ** p<0.01.

Assay [2] has as its system Calu3-shHER3 xenograft tumors. Nature of the assay: Calu3-shHER3 xenograft. The assay is classed as in vivo, human. The note with it: Calu3-shHER3, dox 2 gm/L in drinking water. Here is the method: To confirm this role in vivo, studies using Calu3-shHER3 and Calu3-shHER4 xenograft models treated with either sucrose or dox were performed. Mice with established Calu3-shHER3 or Calu3-shHer4 xenograft tumors were administered vehicle (sucrose) or dox (2 gm/L) in their drinking water ad libitum (n=14/group).

The target of another assay is T1, NRG1β (Homo sapiens, UniProt Q02297).
T1 sequence (Q02297 177-244 isoform Q02297-6 limits assumed): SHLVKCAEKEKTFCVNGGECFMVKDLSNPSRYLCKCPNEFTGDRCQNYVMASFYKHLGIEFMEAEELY
Put plainly: Inhibition of 125I-HRG (NRG1β) binding to HER3-ECD-Fc. Conditions: parental anti-NRG1 antibodies, FIG. 6. The procedure:
The antibodies were tested for their ability to inhibit NRG1β binding to HER3-Fc. 125I-HRG was generated at Genentech as described previously (Sliwkowski et al JBC 1994). Binding assays were performed in Nunc break-apart strip wells (Thermo-Fisher Scientific, Rochester, N.Y.). Plates were coated at 4° C. overnight with 250 ng/well of HER3-ECD-Fc fusion protein in carbonate buffer (pH 9.6). Plates were rinsed twice with wash buffer (PBS/0.05% Tween 20) and blocked with 100 μL PBS including 1% bovine serum albumin (BSA) for 30 minutes. Increasing concentrations of anti-NRG1 antibodies in RPMI 1640 medium (Invitrogen; Carlsbad, Calif.) with 0.2% BSA were pre-bound to HER3-ECD-Fc. 125I-HRG (specific activity: 266 mCi/mg, 75,000 cpm/well) was added immediately after in a total assay volume of 130 μL. Plates were incubated for 2 hours at room temperature, rinsed twice, and individual wells were counted using a 100 Series Iso Data γ-counter. Samples were assayed in triplicates. Plotting was performed using KaleidaGraph 3.6 software. […]
The affinity matured variants were tested for their ability to block HRGβ binding to HER3-Fc. […] Plates were incubated for 2 hours at room temperature, rinsed twice, and individual wells were counted using a 100 Series Iso Data γ-counter. […]

Another assay concerns the target T2, HRG1a (Homo sapiens, UniProt Q02297).
T2 sequence (Q02297 177-241): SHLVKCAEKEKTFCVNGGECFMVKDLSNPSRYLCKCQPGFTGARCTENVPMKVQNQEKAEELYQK
Nature of the assay: Competition assay with 538.24.17 for HRG1a. The assay is classed as binding. The note with it: FIG. 12. The procedure:
(§1) A competition assay was performed to determine the binding specificity of the 526.09 and 526.02 antibodies.

For a further assay, the system named is HRG1β. Nature of the assay: Competition assay with 538.24.17 for HRG1β. In kind it is binding. Conditions: FIG. 12. Here is the method: as §1

Regarding “HER4-ECD: fusion of the human HER4 extracellular domain to murine IgG2A Fc, ligand trap to sequester NRG1”, in the assay on NRG1/HER3 signaling, the p-HER3 levels result is given as “diminished”. In addition, the “tumor burden by micro-CT on day 28” value in assay [1] was “no effect”.
With `C[C@H]1c2cccc(O)c2C(=O)C2=C(O)[C@]3(O)C(=O)C(C(N)=O)=C(O)[C@@H](N(C)C)[C@@H]3[C@@H](O)[C@@H]21` [dox, doxycycline], the “tumor volume doubling time (TDT)” value in assay [2] came to 19 days.

B1: 526.90: parental anti-NRG1 antibody; VH SEQ ID NO: 52, VL SEQ ID NO: 53 (antibody, V domains shown)
VH: EVQLVESGGGLVQPGGSLRLSCAASGFTFSGNAMSWVRQAPGKGLEWVSWIYPSGGNTYYADSVKGRFTISADTSKNTAYLQMNSLRAEDTAVYYCARSYILSYPSITWAFDYWGQGTLVTVSS
VL: DIQMTQSPSSLSASVGDRVTITCRASQSISSYLAWYQQKPGKAPKLLIYGASSRASGVPSRFSGSGSGTDFTLTISSLQPEDFATYYCQQSYSTPITFGQGTKVEIKR
modifications: Heavy chain variable region; Light chain variable region
Regarding B1, in the assay with NRG1β, the “dose-dependent inhibition of NRGβ binding to HER3-Fc” value is listed as “most potent blockers”. In addition, the “competition with 538.24.17 for HRG1a” value with HRG1a is recorded as “competes”. Also, the “competition with 538.24.17 for HRG1β” value in the assay on HRG1β was “competes”.

These data come from patent publication US20140363438A1, “NEUREGULIN ANTIBODIES AND USES THEREOF” (Genentech, Inc., priority 2011, published 2014).
